In US20260092061A1, “COMPOUNDS FOR TARGETED PROTEIN DEGRADATION” (Amphista Therapeutics Limited, priority 2022, published 2026):

How the values were obtained:
BRD9 [1] = target: T1, BRD9 (Homo sapiens, UniProt Q9H8M2); experiment: Degradation of BRD9 (IF), immunofluorescence in MV4-11 cells, 24 hours (Assay Protocol 2); type: cell-based; parameters: A suspension of MV4-11 cells (ATCC CRL-9591) was prepared; host or cells: MV4-11
T1 sequence (Q9H8M2 1-597): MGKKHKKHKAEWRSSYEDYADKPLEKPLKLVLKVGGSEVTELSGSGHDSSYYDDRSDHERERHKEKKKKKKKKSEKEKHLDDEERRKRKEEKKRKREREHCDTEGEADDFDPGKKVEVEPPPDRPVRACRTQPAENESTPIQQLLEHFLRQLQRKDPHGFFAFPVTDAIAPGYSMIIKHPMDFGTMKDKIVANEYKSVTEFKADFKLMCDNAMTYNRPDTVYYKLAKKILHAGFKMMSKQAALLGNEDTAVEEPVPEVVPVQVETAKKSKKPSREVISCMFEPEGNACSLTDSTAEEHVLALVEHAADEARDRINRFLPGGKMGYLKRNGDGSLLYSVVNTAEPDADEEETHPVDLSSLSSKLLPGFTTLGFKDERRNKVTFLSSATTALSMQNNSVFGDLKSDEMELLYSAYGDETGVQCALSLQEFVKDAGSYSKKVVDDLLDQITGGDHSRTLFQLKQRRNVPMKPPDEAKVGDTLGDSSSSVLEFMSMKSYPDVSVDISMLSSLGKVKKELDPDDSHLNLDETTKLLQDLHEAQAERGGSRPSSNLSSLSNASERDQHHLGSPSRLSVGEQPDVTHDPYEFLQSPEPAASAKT
Summary of the method: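 MV4-11 cells treated with compound 24 h at 37° C., then fixed, permeabilised and immunostained for BRD9 (anti-BRD9 E4Q3F, Alexa 647 secondary, Hoechst counterstain). High-content imaging quantified nuclear BRD9 signal; % BRD9 remaining normalised to DMSO and 100 nM CFT-8634 controls.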

BRD9 [2] = target: T1, BRD9; experiment: BRD9 degradation, HiBiT-BRD9 KI HEK293 (LgBiT) cells, NanoGlo Lytic Endpoint assay (Assay Protocol 1); type: cell-based; conditions: BRD9 degradation; for Dmax / Dmax at 1 µM: HEK293; for Dmax at 1 µM: 1 μM compound at 6 h of treatment, read-out: Assay 1 Dmax
Summary of the method: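 HiBiT-tagged BRD9 knock-in HEK293 (LgBiT) cells exposed to compounds for 6 h at 37 °C, 5% CO2. Residual BRD9 measured by HiBiT lytic luminescence. % BRD9 remaining normalised to DMSO-treated cells (high) and no-cell wells (low).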

[3] = Assay protocol 2, BRD9 degradation, read-out: DC50
[4] = MV4-11, Assay protocol 2, BRD9 degradation, read-out: Dmax
[5] = Assay protocol 1, read-out: DC50
[6] = Assay protocol 1, read-out: Dmax
[7] = MV4-11, 24 h, Table 2, BRD9 degradation (IF), Assay Protocol 2, MV4-11 cells, read-out: Assay 2 DCmax
[8] = Table 2, BRD9 degradation (IF), Assay Protocol 2, MV4-11 cells, read-out: Assay 2 DC50
[9] = Table 2, Assay Protocol 1, 6 h of treatment, read-out: Assay 1 DC50
[10] = Table 4, BRD9 degradation, determined according to Assay Protocol 2, read-out: DC50^2

Row | DC50 (BRD9 [1]; [3]) [nM] | Dmax (BRD9 [1]; [4]) [%] | DC50 (BRD9 [2]; [5]) [nM] | Dmax (BRD9 [2]; [6]) [%] | SMILES | further results
1 | < 1.25 | 40 to 70 | < 1.25 | 40 to 70 | COc1cc(-c2cn(C)c(=O)c(C)c2C)cc(OC)c1CN1CCC2(C1)CN(c1cccc3c1CCN(C(=O)/C(C#N)=C/C(C)(C)C)C3C)C2 (mixture of isomers) [Compound B40, (E/Z)-2-(5-(6-(2,6-dimethoxy-4-(1,4,5-trimethyl-6-oxo-1,6-dihydropyridin-3-yl)benzyl)-2,6-diazaspiro[3.4]octan-2-yl)-1-methyl-1,2,3,4-tetrahydroisoquinoline-2-carbonyl)-4,4-dimethylpent-2-enenitrile] | 
2 | 1.25 to 10 | > 75 | 1.25 to 10 | > 75 | COc1cc(-c2cn(C)c(=O)c(C)c2C)cc(OC)c1CN(C)C1CCN(C(=O)/C(C#N)=C/C23CC(C2)C3)CC1 (mixture of isomers) [Compound B187, (E/Z)-3-(bicyclo[1.1.1]pentan-1-yl)-2-(4-((2,6-dimethoxy-4-(1,4,5-trimethyl-6-oxo-1,6-dihydropyridin-3-yl)benzyl)(methyl)amino)piperidine-1-carbonyl)acrylonitrile] | 
3 | < 1.25 | > 75 | 1.25 to 10 | > 75 | COc1cc(-c2cn(C)c(=O)c(C)c2C)cc(OC)c1CN1CCN(Cc2cccc3c2CCN(C(=O)/C(C#N)=C/C2CC(F)(F)C2)C3C)C2(CC2)C1 (mixture of isomers) [Compound B116] | 
4 | 1.25 to 10 | > 75 | < 1.25 | > 75 | COc1cc(-c2cn(C)c(=O)c(C)c2C)cc(OC)c1CN(C)C(=O)c1cccc2c1CCN(C(=O)/C(C#N)=C/c1cccc(Br)n1)C2C (mixture of isomers) [Compound B16, (E/Z)-2-(3-(6-bromopyridin-2-yl)-2-cyanoacryloyl)-N-(2,6-dimethoxy-4-(1,4,5-trimethyl-6-oxo-1,6-dihydropyridin-3-yl)benzyl)-N,1-dimethyl-1,2,3,4-tetrahydroisoquinoline-5-carboxamide] | 
5 | < 1.25 | > 75 | 1.25 to 10 | > 75 | COc1cc(-c2cn(C)c(=O)c(C)c2C)cc(OC)c1CN1CCN(Cc2cccc3c2CCN(C(=O)/C(C#N)=C/C2(C)CCOCC2)C3C)C2(CC2)C1 (mixture of isomers) [Compound B123, (E/Z)-2-(5-((7-(2,6-dimethoxy-4-(1,4,5-trimethyl-6-oxo-1,6-dihydropyridin-3-yl)benzyl)-4,7-diazaspiro[2.5]octan-4-yl)methyl)-1-methyl-1,2,3,4-tetrahydroisoquinoline-2-carbonyl)-3-(4-methyltetrahydro-2H-pyran-4-yl)acrylonitrile] | 
6 | 1.25 to 10 | 70 to 75 | 1.25 to 10 | > 75 | COc1cc(-c2cn(C)c(=O)c(C)c2C)cc(OC)c1CN1CCCN(Cc2cccc3c2CCN(C(=O)/C(C#N)=C/c2cccc(Br)n2)C3C)CC1 (mixture of isomers) [Compound B2, (E/Z)-3-(6-bromopyridin-2-yl)-2-(5-((4-(2,6-dimethoxy-4-(1,4,5-trimethyl-6-oxo-1,6-dihydropyridin-3-yl)benzyl)-1,4-diazepan-1-yl)methyl)-1-methyl-1,2,3,4-tetrahydroisoquinoline-2-carbonyl)acrylonitrile] | 
7 |  | 25 to 40 | 1.25 to 10 | 40 to 70 | COc1cc(-c2cn(C)c(=O)c(C)c2C)cc(OC)c1CN1CCN(Cc2cccc3c2CCN(C(=O)/C(C#N)=C/c2ccc(C)cn2)C3C)CC1 (mixture of isomers) [Compound B18, (E/Z)-2-(5-((4-(2,6-dimethoxy-4-(1,4,5-trimethyl-6-oxo-1,6-dihydropyridin-3-yl)benzyl)piperazin-1-yl)methyl)-1-methyl-1,2,3,4-tetrahydroisoquinoline-2-carbonyl)-3-(5-methylpyridin-2-yl)acrylonitrile] | 
8 | 1.25 to 10 | 40 to 70 | < 1.25 | 40 to 70 | COc1cc(-c2cn(C)c(=O)c(C)c2C)cc(OC)c1CN1CCC2(CC1)CN(c1cccc(C3CCCN3C(=O)C(C#N)=CC(C)(C)C)c1)C2 (single isomer, unassigned) [Compound B43, 2-(2-(3-(7-(2,6-dimethoxy-4-(1,4,5-trimethyl-6-oxo-1,6-dihydropyridin-3-yl)benzyl)-2,7-diazaspiro[3.5]nonan-2-yl)phenyl)pyrrolidine-1-carbonyl)-4,4-dimethylpent-2-enenitrile] | 
9 |  | 40 to 70 |  | 40 to 70 | COc1cc(-c2cn(C)c(=O)c3ccsc23)cc(OC)c1CN1CCN(Cc2cccc3c2CCN(C(=O)/C(C#N)=C/C(C)(C)C)C3C)CC1 (mixture of isomers) [Compound B59, (E/Z)-2-(5-((4-(2,6-dimethoxy-4-(5-methyl-4-oxo-4,5-dihydrothieno[3,2-c]pyridin-7-yl)benzyl)piperazin-1-yl)methyl)-1-methyl-1,2,3,4-tetrahydroisoquinoline-2-carbonyl)-4,4-dimethypent-2-enenitrile] | 
10 | < 1.25 | 40 to 70 | 1.25 to 10 | 40 to 70 | COc1cc(-c2cn(C)c(=O)c(C)c2C)cc(OC)c1CN(C)Cc1ccc2c(c1)CCN(C(=O)/C(C#N)=C/c1nc3ccccc3s1)C2C (mixture of isomers) [Compound B21, (E/Z)-3-(benzo[d]thiazol-2-yl)-2-(6-(((2,6-dimethoxy-4-(1,4,5-trimethyl-6-oxo-1,6-dihydropyridin-3-yl)benzyl)(methyl)amino)methyl)-1-methyl-1,2,3,4-tetrahydroisoquinoline-2-carbonyl)acrylonitrile] | 
11 |  |  |  |  | COc1cc(-c2cn(C)c(=O)c3cnccc23)cc(OC)c1CN1CCCN(Cc2cccc3c2CCN(C(=O)/C(C#N)=C/C(C)(C)C)C3C)CC1 (mixture of isomers) [Compound A31, (E/Z)-2-(5-((4-(2,6-dimethoxy-4-(2-methyl-1-oxo-1,2-dihydro-2,7-naphthyridin-4-yl)benzyl)-1,4-diazepan-1-yl)methyl)-1-methyl-1,2,3,4-tetrahydroisoquinoline-2-carbonyl)-4,4-dimethylpent-2-enenitrile] | Dmax (BRD9 [1]; [7]): 40 to 70%; DC50 (BRD9 [1]; [8]): 1.25 to 10 nM; Dmax at 1 µM (BRD9 [2]; Table 2, Assay Protocol 1): 70 to 75%; DC50 (BRD9 [2]; [9]): 1.25 to 10 nM
12 |  |  |  |  | COc1cc(-c2cn(C)c(=O)c3cnccc23)cc(OC)c1CN1CCN(Cc2cccc3c2CCN(C(=O)/C(C#N)=C/c2nccs2)[C@@H]3C)CC1 (single isomer, unassigned) [Compound A14, (E/Z)-2-(5-((4-(2,6-dimethoxy-4-(2-methyl-1-oxo-1,2-dihydro-2,7-naphthyridin-4-yl)benzyl)piperazin-1-yl)methyl)-1-methyl-1,2,3,4-tetrahydroisoquinoline-2-carbonyl)-3-(thiazol-2-yl)acrylonitrile] | Dmax (BRD9 [1]; [7]): 40 to 70%; DC50 (BRD9 [1]; [8]): < 1.25 nM; Dmax at 1 µM (BRD9 [2]; Table 2, Assay Protocol 1): 40 to 70%; DC50 (BRD9 [2]; [9]): < 1.25 nM
13 |  |  |  |  | COc1cc(-c2cn(C)c(=O)c(C)c2C)cc(OC)c1CN1CC2CC1CN2C(=O)/C(C#N)=C/c1cccc(Br)n1 (mixture of isomers) [BRD9j, (E/Z)-3-(6-bromopyridin-2-yl)-2-(5-(2,6-dimethoxy-4-(1,4,5-trimethyl-6-oxo-1,6-dihydropyridin-3-yl)benzyl)-2,5-diazabicyclo[2.2.1]heptane-2-carbonyl)acrylonitrile] | Dmax (BRD9 [1]; MV4-11, Table 4, BRD9 degradation, determined according to Assay Protocol 2, read-out: Dmax^2): > 70%; DC50 (BRD9 [1]; [10]): < 25 nM; DC50 (BRD9 [2]; Table 4, determined according to Assay Protocol 1, read-out: DC50^1): < 25 nM
14 |  |  |  |  | COc1cc(-c2cn(C)c(=O)c(C)c2C)cc(OC)c1CN1CC2CCC(C1)N2C(=O)/C(C#N)=C/c1nccs1 (mixture of isomers) [BRD9q, (E/Z)-2-(3-(2,6-dimethoxy-4-(1,4,5-trimethyl-6-oxo-1,6-dihydropyridin-3-yl)benzyl)-3,8-diazabicyclo[3.2.1]octane-8-carbonyl)-3-(thiazol-2-yl)acrylonitrile] | DC50 (BRD9 [1]; [10]): < 25 nM; Dmax (BRD9 [2]; Table 4, determined according to Assay Protocol 1, read-out: Dmax^1): 50 to 70%
